According to ChEMBL document CHEMBL2440055, “Unusual transformation of substituted-3-formylchromones to pyrimidine analogues: synthesis and antimicrobial activities of 5-(o-hydroxyaroyl)pyrimidines” (Bioorg Med Chem Lett, 2013):
Values after ≈ are worked out from the molar mass of the structure shown. Active and inactive are the calls of the source. The calls are words filed in the database; no cut-off is given here.

What was measured:
[1] = tested on: Staphylococcus aureus; test: Antibacterial activity against Staphylococcus aureus MTCC-740 after overnight incubation by two-fold broth dilution method
[2] = tested on: Pseudomonas aeruginosa; test: Antibacterial activity against Pseudomonas aeruginosa MTCC-741 after overnight incubation by two-fold broth dilution method; assay type: functional
[3] = tested on: Shigella flexneri; test: Antibacterial activity against Shigella flexneri MTCC-1457 after overnight incubation by two-fold broth dilution method; assay type: functional
[4] = tested on: Candida tropicalis; test: Antifungal activity against Candida tropicalis MTCC-230 after 24 to 72 hrs by broth dilution method; assay type: functional
[5] = tested on: Aspergillus niger; test: Antifungal activity against Aspergillus niger MTCC-281 after 24 to 72 hrs by broth dilution method; assay type: functional
[6] = tested on: Geotrichum; test: Antifungal activity against Geotrichum candidum MTCC-3993 after 24 to 72 hrs by broth dilution method; assay type: functional
[7] = tested on: Candida albicans; test: Antifungal activity against Candida albicans MTCC-227 after 24 to 72 hrs by broth dilution method; assay type: functional
[8] = tested on: Escherichia coli; test: Antibacterial activity against Escherichia coli MTCC-119 after overnight incubation by two-fold broth dilution method; assay type: functional
[9] = tested on: Staphylococcus aureus; details: MTCC-740
[10] = Cytotoxicity against human HeLa cells assessed as cell survival at 200 uM up to 24 hrs by MTT assay; assay type: cell-based; details: read-out: Survival
[11] = Cytotoxicity against human HeLa cells assessed as cell survival at 20 uM after 24 hrs by MTT assay; assay type: cell-based; details: read-out: Survival

SMILES	MIC [1]	MIC [2]	MIC [3]	MIC [4]	MIC [5]	MIC [6]	MIC [7]	MIC [8]	MIC [9]	viability at 24 h, 200 µM [10]	viability at 24 h, 20 µM [11]
O=C(O)c1cn(C2CC2)c2cc(N3CCNCC3)c(F)cc2c1=O [CIPROFLOXACIN]	1.6 µg/mL (≈ 4.83 µM)	0.7 µg/mL (≈ 2.11 µM)	1.2 µg/mL (≈ 3.62 µM)								
OC(Cn1cncn1)(Cn1cncn1)c1ccc(F)cc1F [FLUCONAZOLE]				23 µg/mL (≈ 75.1 µM)	45 µg/mL (≈ 147 µM)	10 µg/mL (≈ 32.7 µM)	20 µg/mL (≈ 65.3 µM)				
O=C(c1cncnc1)c1cc(Cl)ccc1O		96 µg/mL (≈ 409 µM)	74 µg/mL (≈ 315 µM)	> 100 µg/mL	50 µg/mL (≈ 213 µM)	28 µg/mL (≈ 119 µM)	35 µg/mL (≈ 149 µM)	68 µg/mL (≈ 290 µM)	inactive		
O=C(c1cncnc1)c1cc(F)c(Cl)cc1O		70 µg/mL (≈ 277 µM)	50 µg/mL (≈ 198 µM)	46 µg/mL (≈ 182 µM)	48 µg/mL (≈ 190 µM)	15 µg/mL (≈ 59.4 µM)	46 µg/mL (≈ 182 µM)	> 100 µg/mL	inactive	84%	98%
O=C(c1cncnc1)c1ccccc1O		66 µg/mL (≈ 330 µM)	58 µg/mL (≈ 290 µM)	> 100 µg/mL	70 µg/mL (≈ 350 µM)	48 µg/mL (≈ 240 µM)	34 µg/mL (≈ 170 µM)	64 µg/mL (≈ 320 µM)	inactive		
Cc1ccc(O)c(C(=O)c2cncnc2)c1		60 µg/mL (≈ 280 µM)	84 µg/mL (≈ 392 µM)	54 µg/mL (≈ 252 µM)	55 µg/mL (≈ 257 µM)	40 µg/mL (≈ 187 µM)	70 µg/mL (≈ 327 µM)	> 100 µg/mL	inactive		
O=C(c1cncnc1)c1cc(F)ccc1O		> 100 µg/mL	78 µg/mL (≈ 357 µM)	78 µg/mL (≈ 357 µM)	> 100 µg/mL	35 µg/mL (≈ 160 µM)	28 µg/mL (≈ 128 µM)	> 100 µg/mL	inactive		
